Experimental data published in PMC9516332 (Frontiers in Oncology, 2022).
Read-outs that look alike come from different tables or passages of the source.

Key:
134 cancer cell lines [1] = test system: 134 cancer cell lines
134 cancer cell lines [2] = test: Cell viability assay (ATPlite, 72 hours), IC50 on cancer cell line panel

IC50 (134 cancer cell lines [1]): 3.85 µM
IC50 (134 cancer cell lines [2]; HEC-6, read-out: IC50 in cell proliferation assay, HEC-6 cell line (EGFR p.A289V)): 3.25 µM
IC50 (134 cancer cell lines [2]; Homo sapiens, 769-P, read-out: IC50 in cell proliferation assay, cell line 769-P): 2.85 µM
IC50 (134 cancer cell lines [2]; Homo sapiens, 786-0, read-out: IC50 in cell proliferation assay, cell line 786-O): 3.28 µM
IC50 (134 cancer cell lines [2]; Homo sapiens, A 172, read-out: IC50 in cell proliferation assay, cell line A-172): 3.94 µM
IC50 (134 cancer cell lines [2]; Homo sapiens, A204, read-out: IC50 in cell proliferation assay, cell line A-204): 2.68 µM
IC50 (134 cancer cell lines [2]; Homo sapiens, A498, read-out: IC50 in cell proliferation assay, cell line A-498): 4.17 µM
IC50 (134 cancer cell lines [2]; Homo sapiens, A549, read-out: IC50 in cell proliferation assay, cell line A-549): 4.56 µM
IC50 (134 cancer cell lines [2]; Homo sapiens, A704, read-out: IC50 in cell proliferation assay, cell line A-704): 6.19 µM
IC50 (134 cancer cell lines [2]; Homo sapiens, A-375, read-out: IC50 in cell proliferation assay, cell line A-375 (BRAF p.V600E)): 1.61 µM
IC50 (134 cancer cell lines [2]; Homo sapiens, A-427, read-out: IC50 in cell proliferation assay, cell line A-427): 1.45 µM
IC50 (134 cancer cell lines [2]; Homo sapiens, ACHN, read-out: IC50 in cell proliferation assay, cell line ACHN): 4.78 µM
IC50 (134 cancer cell lines [2]; Homo sapiens, AN3-CA, read-out: IC50 in cell proliferation assay, cell line AN3-CA (FGFR2 p.N549K)): 4.14 µM
IC50 (134 cancer cell lines [2]; Homo sapiens, ASPC1, read-out: IC50 in cell proliferation assay, cell line AsPC-1): 1.34 µM
IC50 (134 cancer cell lines [2]; Homo sapiens, AU565, read-out: IC50 in cell proliferation assay, cell line AU565 (ERBB2 amplification)): 3.26 µM
IC50 (134 cancer cell lines [2]; Homo sapiens, BT-20, read-out: IC50 in cell proliferation assay, cell line BT-20): 6.05 µM
IC50 (134 cancer cell lines [2]; Homo sapiens, BT-474, read-out: IC50 in cell proliferation assay, cell line BT-474 (ERBB2 amplification)): 3.2 µM
IC50 (134 cancer cell lines [2]; Homo sapiens, BT-549, read-out: IC50 in cell proliferation assay, cell line BT-549): 3.83 µM
IC50 (134 cancer cell lines [2]; Homo sapiens, BXPC-3, read-out: IC50 in cell proliferation assay, cell line BxPC-3): 1.7 µM
IC50 (134 cancer cell lines [2]; Homo sapiens, C-33-A, read-out: IC50 in cell proliferation assay, cell line C-33 A): 4.46 µM
IC50 (134 cancer cell lines [2]; Homo sapiens, CAL-27, read-out: IC50 in cell proliferation assay, cell line CAL-27): 3.02 µM
IC50 (134 cancer cell lines [2]; Homo sapiens, CCF-STTG1, read-out: IC50 in cell proliferation assay, cell line CCF-STTG1): 4.5 µM
IC50 (134 cancer cell lines [2]; Homo sapiens, CCRF-CEM, read-out: IC50 in cell proliferation assay, cell line CCRF-CEM): 3.89 µM
IC50 (134 cancer cell lines [2]; Homo sapiens, COLO 205, read-out: IC50 in cell proliferation assay, cell line COLO 205 (BRAF p.V600E)): 1.88 µM
IC50 (134 cancer cell lines [2]; Homo sapiens, COLO-829, read-out: IC50 in cell proliferation assay, cell line COLO 829 (BRAF p.V600E)): 3.26 µM
IC50 (134 cancer cell lines [2]; Homo sapiens, DLD-1, read-out: IC50 in cell proliferation assay, cell line DLD-1): 4.38 µM
IC50 (134 cancer cell lines [2]; Homo sapiens, DU-4475, read-out: IC50 in cell proliferation assay, cell line DU4475 (BRAF p.V600E)): 2.18 µM
IC50 (134 cancer cell lines [2]; Homo sapiens, Daoy, read-out: IC50 in cell proliferation assay, cell line Daoy): 4.95 µM
IC50 (134 cancer cell lines [2]; Homo sapiens, DoTc2-4510, read-out: IC50 in cell proliferation assay, cell line DoTc2 4510): 1.19 µM
IC50 (134 cancer cell lines [2]; Homo sapiens, EOL1, read-out: IC50 in cell proliferation assay, cell line EoL-1 (FIP1L1-PDGFRA)): 0.564 µM
IC50 (134 cancer cell lines [2]; Homo sapiens, FaDu, read-out: IC50 in cell proliferation assay, cell line FaDu): 3.25 µM
IC50 (134 cancer cell lines [2]; Homo sapiens, G-361, read-out: IC50 in cell proliferation assay, cell line G-361 (BRAF p.V600E)): 1.51 µM
IC50 (134 cancer cell lines [2]; Homo sapiens, HCC827, read-out: IC50 in cell proliferation assay, cell line HCC827 (EGFR exon19del)): 3.71 µM
IC50 (134 cancer cell lines [2]; Homo sapiens, HCC4006, read-out: IC50 in cell proliferation assay, cell line HCC4006 (EGFR exon19del)): 2.73 µM
IC50 (134 cancer cell lines [2]; Homo sapiens, HCT-15, read-out: IC50 in cell proliferation assay, cell line HCT 15): 3.81 µM
IC50 (134 cancer cell lines [2]; Homo sapiens, HCT-116, read-out: IC50 in cell proliferation assay, cell line HCT 116): 2.72 µM
IC50 (134 cancer cell lines [2]; Homo sapiens, HEC-1, read-out: IC50 in cell proliferation assay, HEC-1 cell line): 2.71 µM
IC50 (134 cancer cell lines [2]; Homo sapiens, HEC-1B, read-out: IC50 in cell proliferation assay, HEC-1-B cell line (EGFR p.A864V)): 1.96 µM
IC50 (134 cancer cell lines [2]; Homo sapiens, HL-60, read-out: IC50 in cell proliferation assay, HL-60 cell line): 0.951 µM
IC50 (134 cancer cell lines [2]; Homo sapiens, HT, read-out: IC50 in cell proliferation assay, HT cell line): 4.74 µM
IC50 (134 cancer cell lines [2]; Homo sapiens, HT-1080, read-out: IC50 in cell proliferation assay, HT-1080 cell line): 2 µM
IC50 (134 cancer cell lines [2]; Homo sapiens, Hs746T, read-out: IC50 in cell proliferation assay, Hs 746.T cell line (MET exon14skip + amplification)): 3.34 µM
IC50 (134 cancer cell lines [2]; Homo sapiens, Hs-578T, read-out: IC50 in cell proliferation assay, Hs 578T cell line): 4.07 µM
IC50 (134 cancer cell lines [2]; Homo sapiens, HuTu80, read-out: IC50 in cell proliferation assay, HuTu 80 cell line): 1.67 µM
IC50 (134 cancer cell lines [2]; Homo sapiens, J82, read-out: IC50 in cell proliferation assay, J82 cell line): 4.5 µM
IC50 (134 cancer cell lines [2]; Homo sapiens, Jurkat E6.1, read-out: IC50 in cell proliferation assay, Jurkat E6.1 cell line): 4.07 µM
IC50 (134 cancer cell lines [2]; Homo sapiens, K562, read-out: IC50 in cell proliferation assay, K-562 cell line): 3.97 µM
IC50 (134 cancer cell lines [2]; Homo sapiens, KATO III, read-out: IC50 in cell proliferation assay, KATO III cell line (FGFR2 amplification)): 2.36 µM
IC50 (134 cancer cell lines [2]; Homo sapiens, KG-1, read-out: IC50 in cell proliferation assay, KG-1 cell line (FGFR1OP2-FGFR1)): 3.85 µM
IC50 (134 cancer cell lines [2]; Homo sapiens, KLE, read-out: IC50 in cell proliferation assay, KLE cell line): 3.58 µM
IC50 (134 cancer cell lines [2]; Homo sapiens, KMS-11, read-out: IC50 in cell proliferation assay, KMS-11 cell line (FGFR3 p.Y373C)): 1.31 µM
IC50 (134 cancer cell lines [2]; Homo sapiens, KU812, read-out: IC50 in cell proliferation assay, Ku812 cell line): 1.88 µM
IC50 (134 cancer cell lines [2]; Homo sapiens, Kasumi 1, read-out: IC50 in cell proliferation assay, Kasumi-1 cell line (KIT p.N822K)): 1.04 µM
IC50 (134 cancer cell lines [2]; Homo sapiens, LC-2-ad, read-out: IC50 in cell proliferation assay, LC-2/ad cell line (CCDC6-RET)): 2.02 µM
IC50 (134 cancer cell lines [2]; Homo sapiens, LNCaP-Clone-FGC, read-out: IC50 in cell proliferation assay, LNCaP clone FGC cell line): 3.72 µM
IC50 (134 cancer cell lines [2]; Homo sapiens, LS174T, read-out: IC50 in cell proliferation assay, LS174T cell line): 2 µM
IC50 (134 cancer cell lines [2]; Homo sapiens, LS-411N, read-out: IC50 in cell proliferation assay, LS411N cell line (BRAF p.V600E)): 1.97 µM
IC50 (134 cancer cell lines [2]; Homo sapiens, LoVo, read-out: IC50 in cell proliferation assay, LoVo cell line): 3.47 µM
IC50 (134 cancer cell lines [2]; Homo sapiens, MCF7, read-out: IC50 in cell proliferation assay, MCF-7 cell line): 2.77 µM
IC50 (134 cancer cell lines [2]; Homo sapiens, MDA-MB-231, read-out: IC50 in cell proliferation assay, MDA-MB-231 cell line): 0.782 µM
IC50 (134 cancer cell lines [2]; Homo sapiens, MDA-MB-453, read-out: IC50 in cell proliferation assay, MDA-MB-453 cell line): 0.944 µM
IC50 (134 cancer cell lines [2]; Homo sapiens, MDA-MB-468, read-out: IC50 in cell proliferation assay, MDA-MB-468 cell line): 4.45 µM
IC50 (134 cancer cell lines [2]; Homo sapiens, MG-63, read-out: IC50 in cell proliferation assay, MG-63 cell line): 3.04 µM
IC50 (134 cancer cell lines [2]; Homo sapiens, MIA PaCa-2, read-out: IC50 in cell proliferation assay, MIA PaCa-2 cell line): 2.19 µM
IC50 (134 cancer cell lines [2]; Homo sapiens, MKN-45, read-out: IC50 in cell proliferation assay, MKN45 cell line (MET amplification)): 3.52 µM
IC50 (134 cancer cell lines [2]; Homo sapiens, MOLM-13, read-out: IC50 in cell proliferation assay, MOLM-13 cell line (FLT3 ITD)): 0.995 µM
IC50 (134 cancer cell lines [2]; Homo sapiens, MOLT-4, read-out: IC50 in cell proliferation assay, MOLT-4 cell line): 3.76 µM
Structure (SMILES): Cc1cc(Nc2ncc(Cl)c(Nc3ccccc3S(=O)(=O)C(C)C)n2)c(OC(C)C)cc1C1CCNCC1 [ceritinib]
